For this assay, the target named is T1, Glucan Synthase of Candida albicans (Candida albicans, UniProt O13428).
T1 construct: endogenous in cells
The assay can be described thus: Inhibition of the Glucan Synthase of Candida albicans (14C-UDP glucose incorporation, membrane proteins). It counts as biochemical. The conditions noted are these: Candida albicans membranes, 25° C., 1 hour, radioactivity counted. As to the method:
A—Inhibition of the Glucan Synthase of Candida albicans.
Candida albicans membranes were purified according to the process described by Tang et al Antimicrob. Agents Chemother 35, 99–103, 1991. 22.5 μg of membrane proteins are incubated in a mixture of 2 Mm of 14C-UDP glucose (specific activity=0.34 mCi./mmol, 50 μg of α-amylase, 1 Mm of dithiotreitol (DTT), 1 Mm EDTA, 100 Mm NaF, 7 μM of GTP-γ-S, 1M of sucrose and 50 Mm of Tris-HCL (pH 7.8) in a volume of 100 μl. The medium is incubated at 25° C. for 1 hour and the reaction is terminated by adding TCA at a final concentration of 5%. The reaction mixture is transferred onto a pre-humidified glass fibre filter. The filter is washed, dried and its radioactivity is counted. Mulundocandine is used as a positive control. Control of the vehicle is carried out with the same quantity of 1% DMSO. […] The enzyme is prepared according to the process of Beaulieu et al.(Antimicrob. Agents Chemother 38, 937–944, 1994. The protocol used is identical to the protocol described above for the enzyme of Candida albicans except that dithiotreitol is not used in the reaction mixture.

T1 sequence (O13428 1-1897): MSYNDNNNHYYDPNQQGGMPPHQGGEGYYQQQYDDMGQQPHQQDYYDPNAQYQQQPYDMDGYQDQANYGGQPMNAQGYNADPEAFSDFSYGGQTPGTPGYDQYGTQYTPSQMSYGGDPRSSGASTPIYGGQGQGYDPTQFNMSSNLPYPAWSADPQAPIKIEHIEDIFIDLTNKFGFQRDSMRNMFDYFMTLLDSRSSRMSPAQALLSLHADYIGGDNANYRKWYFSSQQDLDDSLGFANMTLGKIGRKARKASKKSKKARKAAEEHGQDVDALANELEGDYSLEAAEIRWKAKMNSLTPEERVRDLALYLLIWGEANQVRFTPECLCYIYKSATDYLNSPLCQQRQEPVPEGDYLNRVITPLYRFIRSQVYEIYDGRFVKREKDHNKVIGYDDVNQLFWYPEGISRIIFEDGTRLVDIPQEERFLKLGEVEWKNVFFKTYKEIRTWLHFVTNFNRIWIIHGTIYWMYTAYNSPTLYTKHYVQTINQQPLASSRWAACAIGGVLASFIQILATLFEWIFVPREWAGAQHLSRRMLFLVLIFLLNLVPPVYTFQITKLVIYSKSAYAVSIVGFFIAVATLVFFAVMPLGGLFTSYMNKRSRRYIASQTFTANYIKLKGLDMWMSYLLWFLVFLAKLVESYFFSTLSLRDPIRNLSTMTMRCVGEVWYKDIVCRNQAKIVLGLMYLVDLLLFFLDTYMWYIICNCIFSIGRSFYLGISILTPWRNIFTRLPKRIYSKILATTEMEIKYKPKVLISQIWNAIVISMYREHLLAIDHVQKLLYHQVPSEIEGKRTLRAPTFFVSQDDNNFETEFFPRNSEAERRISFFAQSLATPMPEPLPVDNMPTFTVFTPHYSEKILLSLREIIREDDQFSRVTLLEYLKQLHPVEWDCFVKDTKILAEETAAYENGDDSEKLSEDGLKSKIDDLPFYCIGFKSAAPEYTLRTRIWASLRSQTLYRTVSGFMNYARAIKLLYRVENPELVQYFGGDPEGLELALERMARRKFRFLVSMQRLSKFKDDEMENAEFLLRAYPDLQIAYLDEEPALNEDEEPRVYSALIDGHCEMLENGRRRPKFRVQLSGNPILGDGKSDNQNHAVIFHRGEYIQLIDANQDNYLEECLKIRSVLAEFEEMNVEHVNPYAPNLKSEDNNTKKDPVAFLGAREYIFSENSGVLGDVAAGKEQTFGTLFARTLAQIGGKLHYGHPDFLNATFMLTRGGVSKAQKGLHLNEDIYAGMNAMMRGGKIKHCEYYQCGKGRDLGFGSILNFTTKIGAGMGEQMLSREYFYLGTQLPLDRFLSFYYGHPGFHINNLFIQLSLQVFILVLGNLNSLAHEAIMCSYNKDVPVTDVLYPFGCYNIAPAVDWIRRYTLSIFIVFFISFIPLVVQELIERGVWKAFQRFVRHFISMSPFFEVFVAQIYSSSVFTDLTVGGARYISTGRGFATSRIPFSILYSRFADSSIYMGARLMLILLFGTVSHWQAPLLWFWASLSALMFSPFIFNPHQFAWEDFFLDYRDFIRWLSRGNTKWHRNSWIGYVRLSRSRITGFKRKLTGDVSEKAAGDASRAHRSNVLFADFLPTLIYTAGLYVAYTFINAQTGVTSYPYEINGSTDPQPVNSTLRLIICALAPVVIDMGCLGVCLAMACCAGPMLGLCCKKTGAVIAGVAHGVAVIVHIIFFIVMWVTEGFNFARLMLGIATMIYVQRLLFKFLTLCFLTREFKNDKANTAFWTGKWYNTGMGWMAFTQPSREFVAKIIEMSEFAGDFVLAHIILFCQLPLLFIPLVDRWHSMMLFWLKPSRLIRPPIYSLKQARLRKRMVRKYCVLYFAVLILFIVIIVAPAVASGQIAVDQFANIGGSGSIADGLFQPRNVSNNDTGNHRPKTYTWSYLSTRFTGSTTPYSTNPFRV
T1 sequence (O42825 1-195 partner limits assumed): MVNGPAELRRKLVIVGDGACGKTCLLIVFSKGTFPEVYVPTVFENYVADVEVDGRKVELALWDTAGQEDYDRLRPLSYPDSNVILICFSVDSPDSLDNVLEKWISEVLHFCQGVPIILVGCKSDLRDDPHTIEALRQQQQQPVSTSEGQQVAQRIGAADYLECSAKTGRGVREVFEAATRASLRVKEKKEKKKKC

In the case of “Trans 1-[4-[(2-aminocyclo-hexyl)-amino]-N2-[[4″-(pentyloxy) [1,1′:4′,1″-terphenyl]-4-yl]-carbonyl]-L-ornithine]-4-[4-(4-hydroxyphenyl)-L-threonine]-5-L-serine-echinocandine B trifluoroacetate (isomer A) [Example 3 isomer A]”, the “Inhibition of the glucan synthase of Candida albicans” value was “good activity”.

The record behind these values is patent US7022669B1, “Echinocandin derivatives, method for preparing same and application as antifungal agents” (Aventis Pharma S.A., priority 1999, dated 2006).
